The source of these data is patent US10934272B2, “Pyridyl derivatives as bromodomain inhibitors” (GlaxoSmithKline Intellectual Property (No. 2) Limited, priority 2016, dated 2021).

In experiment [1] the target is T1, BRD4 BD2 (Homo sapiens, UniProt O60885, Y97A).
T1 construct: BRD4 (1-477) (Y97A) and (Y390A); made in house; host or cells: E. coli (pET15b vector)
The experiment can be described thus: TR-FRET competition assay, BRD4 BD2 (single mutant tandem bromodomain protein). Type of experiment: binding. The settings on record: for IC50: read-out: pIC50 in the BRD4 BD2 assay (converted); for selectivity for BRD4 BD2 over BRD4 BD1: Selectivity = BRD4 BD2 pIC50 - BRD4 BD1 pIC50, in at least one of the TR-FRET assays; for fold selective for BRD4 BD2 over BRD4 BD1: from the pIC50 difference BRD4 BD2 - BRD4 BD1. As to the method:
Time Resolved Fluorescence Resonance Energy Transfer (TR-FRET) Assay
Bromodomain binding was assessed utilising a time resolved fluorescent resonance energy transfer (TR-FRET) competition assay. To enable this approach a known, high affinity, pan-BET interacting small molecule was labelled with Alexa Fluor® 647, which is a far-red-fluorescent dye (Reference Compound X). Reference Compound X acts as a reporter of bromodomain binding and is the acceptor fluorophore component of the TR-FRET pair. Europium chelate, conjugated to an anti-6*His antibody, was utilised as the donor fluorophore in the TR-FRET pair. […] A TR-FRET signal is generated when the donor and acceptor fluorophores are in close proximity, between 20-80 Å, which is enabled in this assay by binding of Reference Compound X to the bromodomain protein.
If the acceptor fluorophore is in close proximity then energy transfer can occur, which leads to emission of Alexa Fluor® 647 at λ665 nm. In the presence of competitor compound, Reference Compound X can be displaced from binding to the bromodomain. If displacement occurs, the acceptor fluorophore is no longer in proximity to the donor fluorophore, which prevents fluorescent energy transfer and, subsequently, a loss of Alexa Fluor® 647 emission at λ665 nm.
The competition of the compounds of formula (I) with Reference Compound X for binding to the BET family (BRD2, BRD3, BRD4 and BRDT) was assessed using protein truncates spanning both bromodomain 1 (BD1) and bromodomain 2 (BD2). In order to monitor differential binding to either BD1 or BD2, single residue mutations of key tyrosines to alanine were made in the acetyl lysine binding pockets. To validate this approach, a double residue mutant tandem domain protein was produced for each of the BET family members. Utilising a Fluorescence Polarisation approach, binding affinities for each of the single and double mutants for Reference Compound X were determined. […] Final purification was completed by Superdex 200 prep grade size exclusion column. Purified protein was stored at −80° C. in 20 mM HEPES pH 7.5 and 100 mM NaCl.
Protocol for Bromodomain BRD2, 3, 4 and T, BD1+BD2 mutant TR-FRET competition assays:
All assay components were dissolved in an assay buffer composing of 50 mM HEPES pH7.4, 50 mM NaCl, 5% Glycerol, 1 mM DTT and 1 mM CHAPS. […] The solution containing bromodomain and Reference Compound X was added to dose response dilutions of test compound or DMSO vehicle (a maximum of 0.5% DMSO is used in this assay) in Greiner 384 well black low volume microtitre plates and subsequently incubated for 30 minutes at room temperature. An equal volume of 3 nM of anti-6*His Europium chelate was added to all wells, followed by a further 30 minute incubation at room temperature. TR-FRET was detected using a Perkin Elmer Multimode plate reader, by exciting the donor fluorophore at A337 nm and subsequently, after a delay of 50 μsecs, measuring emission of the donor and acceptor fluorophores at A615 nm and λ665 nm, respectively. In order to control these assays, 16 replicates each of uninhibited (DMSO vehicle) and inhibited (10*IC50 concentrations of Example 11 of WO 2011/054846A1) TR-FRET assays were included on every microtitre plate.
cA four parameter curve fit of the following form was then applied: y=a+((b−a)/(1+(10^x/10^c)^d)
Where ‘a’ is the minimum, ‘b’ is the Hill slope, ‘c’ is the pIC50 and ‘d’ is the maximum.
On the technique in general: In TR-FRET formats the signal depends on donor and acceptor labels being close together.

The test system of experiment [2] is BET family (BRD2, BRD3, BRD4 and BRDT) tandem bromodomain proteins, Tyrosine to Alanine mutants. The experiment can be described thus: Fluorescence Polarisation binding of Reference Compound X to single and double mutant tandem BET proteins. Also noted: species or system Human. As to the method: The competition of the compounds of formula (I) with Reference Compound X for binding to the BET family (BRD2, BRD3, BRD4 and BRDT) was assessed using protein truncates spanning both bromodomain 1 (BD1) and bromodomain 2 (BD2). In order to monitor differential binding to either BD1 or BD2, single residue mutations of key tyrosines to alanine were made in the acetyl lysine binding pockets. To validate this approach, a double residue mutant tandem domain protein was produced for each of the BET family members. Utilising a Fluorescence Polarisation approach, binding affinities for each of the single and double mutants for Reference Compound X were determined. […] The affinities of the single mutated bromodomain tandem proteins for Reference Compound X were equi-potent with the corresponding non-mutated BET protein. […] Final purification was completed by Superdex 200 prep grade size exclusion column. Purified protein was stored at −80° C. in 20 mM HEPES pH 7.5 and 100 mM NaCl. Protein identity was confirmed by peptide mass fingerprinting and predicted molecular weight confirmed by mass spectrometry.
On the technique in general: Polarisation of emitted light reports the rotation of a fluorescent probe.

Setting [3] is: TR-FRET competition with Reference Compound X, values exemplary only.

For `CNC(=O)c1cc(C(=O)NCC2CCCO2)cc(Cc2ccccc2)n1` (racemic) [Example 84, (+/−)-6-Benzyl-N^2-methyl-N^4-((tetrahydrofuran-2-yl)methyl)pyridine-2,4-dicarboxamide], the IC50 in experiment [1] (setting [3]) is 1 to 10 µM.
`CNC(=O)c1cc(C(=O)NCC2CCCCO2)cc(Cc2ccccc2)n1` (racemic) [Example 85, (+/−)-6-Benzyl-N^2-methyl-N^4-((tetrahydro-2H-pyran-2-yl)methyl)pyridine-2,4-dicarboxamide]: the IC50 in experiment [1] (setting [3]) was 1 to 10 µM.
As to `CNC(=O)c1cc(C(=O)N[C@H]2[C@@H]3COC[C@@H]32)cc(C(CF)c2ccccc2)n1` (mixture of isomers) [Example 164, (+/−)-N^4-((1R,5S,6r)-3-Oxabicyclo[3.1.0]hexan-6-yl)-6-(2-fluoro-1-phenylethyl)-N^2-methylpyridine-2,4-dicarboxamide], the IC50 in experiment [1] (setting [3]) was 1 to 10 µM.
Turning to `CNC(=O)c1cc(C(=O)NCC[C@H]2CNCCO2)cc(C(C)c2ccccc2)n1` (single isomer, unassigned) [Example 41, N^2-Methyl-N^4-(2-((S)-morpholin-2-yl)ethyl)-6-((S*)-1-phenylethyl)pyridine-2,4-dicarboxamide], in experiment [1], the “selectivity for BRD4 BD2 over BRD4 BD1” value is reported as 3.0 log units and the “fold selective for BRD4 BD2 over BRD4 BD1” value is reported as “at least 1000 fold”. The IC50 in experiment [1] (setting [3]) was 0.0398 µM.
Consider `CNC(=O)c1cc(C(=O)N[C@H]2[C@@H]3COC[C@@H]32)cc([C@@H](CF)c2ccccc2)n1` (single isomer, unassigned) [Example 165, N^4-((1R,5S,6r)-3-Oxabicyclo[3.1.0]hexan-6-yl)-6-((S*)-2-fluoro-1-phenylethyl)-N^2-methylpyridine-2,4-dicarboxamide], for which the IC50 in experiment [1] (setting [3]) is 1 to 10 µM.
On the same count and under the same terms, as for `CNC(=O)c1cc(C(=O)N[C@H]2[C@@H]3COC[C@@H]32)cc([C@H](CF)c2ccccc2)n1` (single isomer, unassigned) [Example 166, N^4-((1R,5S,6r)-3-Oxabicyclo[3.1.0]hexan-6-yl)-6-((R*)-2-fluoro-1-phenylethyl)-N^2-methylpyridine-2,4-dicarboxamide], the figure is 1 to 10 µM; as for `CNC(=O)c1cc(C(=O)NCC2CCOCC2)cc(Cc2ccccc2)n1` [Example 87, 6-Benzyl-N^2-methyl-N^4-((tetrahydro-2H-pyran-4-yl)methyl)pyridine-2,4-dicarboxamide], 1 to 10 µM.
Still for that read-out and setting: to `CNC(=O)c1cc(C(=O)N[C@H]2[C@@H]3COC[C@@H]32)cc(Cc2cccc3c2CCN3)n1` [Example 130, N^4-((1R,5S,6r)-3-Oxabicyclo[3.1.0]hexan-6-yl)-6-(indolin-4-ylmethyl)-N^2-methylpyridine-2,4-dicarboxamide] belongs 0.0501 µM.
As for `CNC(=O)c1cc(C(=O)NCCCC2OCC(N)CO2)cc(C(OC)c2ccccc2)n1` [Example 161, N^4-(3-((2r,5S)-5-Amino-1,3-dioxan-2-yl)propyl)-6-((R*)-methoxy(phenyl)methyl)-N2-methylpyridine-2,4-dicarboxamide], in experiment [1], the “selectivity for BRD4 BD2 over BRD4 BD1” value was determined as 3.2 log units and the “fold selective for BRD4 BD2 over BRD4 BD1” value is listed as “at least 1000 fold”. The “pIC50 in the BRD4 BD2 assay” value in experiment [1] (setting [3]) is on record as 7.6 log10 units.
Turning to `COc1ccc2c(c1)C(c1ccc(Cl)cc1)=N[C@@H](CC(=O)NCCCCCNC(=O)CCCCCC1(C)/C(=C/C=C/C=C/C3=[N+](CCCCS(=O)(=O)O)c4ccc(S(=O)(=O)O)cc4C3(C)C)N(CCCCS(=O)(=O)[O-])c3ccc(S(=O)(=O)O)cc31)c1nnc(C)n1-2` (stereo partly drawn) [Reference Compound X], the “reduction in Kd (affinity) of double mutant tandem proteins in comparison to non mutated, wild type tandem BET proteins” value in experiment [2] (double residue mutant tandem domain protein, each BET family member) is on record as over 1000 fold. In addition, the “reduction of the Kd of the interaction between the mutated bromodomain and Reference Compound X” value in experiment [2] (single mutations of Tyrosine to Alanine) was over 1000 fold.
